{"source": "patent US20080254152A1", "about": "“Methods for Reducing the Effects of Stress on Skin Condition” (priority 2003, published 2008)", "key": {"[1]": {"system": "ICAM-1 expression in HUVECs", "assay": "ICAM-1 expression in HUVECs pre-treated 5 days with dexamethasone, then oxidatively stressed with PMA (ELISA)", "type": "cell-based, Human", "details": "then 1 μM PMA, HUVEC", "method": "An in vitro model has been developed to investigate the impact of chronic stress on the inflammatory status of endothelial cells. • a. Cells are grown in 6-well (9.5 cm^2) plates. • b. […] Tissue culture supernatant and cell pellets are harvested at timepoint T0. • d. The cells are oxidatively stressed with 1 μM Phorbol Myristate Acetate (PMA). • e. Tissue culture supernatant and cell pellets were harvested at 6, 24 and 48 hours (T6, T24 and T48, respectively) post-PMA treatment. • f. All tissue culture supernatant was assayed for Lactate Dehydrogenase (LDH), as a measure of cytotoxicity, and Interleukin-6 synthesis. • g. All cells were counted (Beckman Coulter Counter) and pelleted and cell lysate assayed for ICAM-1 expression (Intra Cellular Adhesion Molecule 1).\nHUVEC cells (Human umbilical vein endothelial cells, TCS Biologicals) were cultured and passaged in EGM-2 (Endothelial growth medium, Biowhittaker) supplemented with heparin, VEGF (vascular endothelial growth factor), gentamicin sulphate, ascorbic acid, HEGF (Human endothelial growth factor), hydrocortisone, HFGF-B (Human fibroblast growth factor B), R3-IGF-1 (long R insulin-like growth factor 1) and FBS (foetal bovine serum).\nCells were routinely plated out in 6-well tissue culture dishes, at a seeding density of ˜5000 cells/cm^2 in 2 ml complete medium/well, 48 hours before starting the experiment, and incubated at 37° C. in 5% CO2.\nPre-treatment and test solutions were prepared in EGM-2 containing all supplements except hydrocortisone.\nFollowing this, the cells were oxidatively stressed for 24 hours with 1 μM PMA (Sigma P8139).\nReceptor antagonists were added to the cells during the pre-treatment period. These included the Glucocorticoid Receptor Antagonist; 2 μM Mifepristone (Sigma M8046) and two CRH receptor antagonists; 200 nM Astressin (Sigma A4933) and 200 nM α-helical CRF peptide antagonist (Sigma C2917).\nAny change in cell morphology was noted before the cells were harvested. Both the tissue culture supernatant and the endothelial cells were harvested after the five-day pre-treatment period (T0), at 6 hours and 24 hours after addition of PMA (T6 and T24) and at 24 hours after removal of the PMA (T48). All tissue culture supernatants were stored at −20° C.\nAll cell pellets were lysed on ice for 30 minutes in 1 ml cell lysis buffer per 2.5×10^6 cells. The lysis buffer contained 1% NP-40, 0.1% sodium deoxycholate, 0.1% SDS, 6 mM sodium chloride and 0.05M Tris at pH 7.6. Protease inhibitor cocktail ([…]; Sigma P8340) was added prior to use at a level of 10 μl per ml of lysis buffer. The partially lysed cell pellets were completely homogenised with a pellet pestle and unwanted cell debris removed by centrifugation for 20 minutes at 20,000 g at 4° C. The clarified cell lysate was frozen at −80° C. until needed.\nThe total protein concentration of each cell lysate was measured using the Pierce BCA protein assay kit. A set of eight standard solutions ranging from 0 to 1200 μg/ml protein was prepared from the supplied 2 mg/ml BSA stock solution. 10 μl of standard or cell lysate was added to duplicate wells of a flat-bottomed, 96-well microtitre plate. The reagent solution was prepared according to the kit instructions from 50 parts reagent A and 1 part reagent B. 200 μl of the final reagent was added to each well of the microtitre plate. The plate was mixed, covered and incubated at 37° C. for 30 minutes and absorbance read at 562 nm.\nICAM-1 protein in each cell lysate was estimated using the Human sICAM-1 DuoSet ELISA kit (R&D Systems DY720) according to the manufacturer's instructions.\nThe capture antibody was diluted to a final concentration of 4 μg/ml in PBS and 100 μl was used to coat each well of a 96-well microtitre plate overnight at room temperature. The plate was then washed three times with wash buffer (0.05% Tween 20 in PBS)."}, "[2]": {"system": "MMP-1 expression in human neonatal dermal fibroblast cells", "assay": "Active MMP-1 in neonatal-derived human dermal fibroblasts after chronic dexamethasone and PMA", "type": "cell-based", "details": "agent added during dexamethasone pre-treatment; dermal fibroblasts", "method": "(§1) In this study, to understand better the effect of chronic stress on dermal matrix remodelling in the skin, we have therefore measured changes in markers of dermal matrix degradation (MMP-1) and dermal matrix synthesis (Procollagen I) in chronically glucocorticoid-treated primary human dermal fibroblasts, following acute stress with PMA. The experimental approach is similar to that described in example 1 except that the cells tested are dermal fibroblasts and cells are assayed for expression of procollagen-1, MMP-1 and MMP-9 expression.\n(§2) Primary human dermal fibroblast cells were cultured and passaged in DMEM (Gibco) supplemented with 10% FBS (foetal bovine serum). Cells were routinely plated out in 6-well tissue culture dishes, at a seeding density of ˜5000 cells/cm^2 in 2 ml complete medium/well for 24 hours, and incubated at 37° C. in 5% CO2. Media was removed and cells grown in DMEM & 1% FBS, 24 hours prior to treatments.\n(§3) Pre-treatment and test solutions were prepared in DMEM containing low serum (1% FBS). […] Following this, the cells were oxidatively stressed for 24 hours with 1 μM PMA (Sigma P8139).\nMMP-1 and MMP-9 protein in each cell supernatant was estimated using the Human active MMP-1 and MMP-9 Fluorokine enzyme kit (R&D Systems F1M00 and F9M00, respectively), according to the manufacturer's instructions.\nSix MMP-1 and MMP-9 standards were prepared in calibrator diluent at concentrations ranging from 0.39 to 12.5 ng/ml and 0.25 to 16 ng/ml, respectively. 100 μl of assay diluent and 150 μl of tissue culture supernatant or standard was added to duplicate wells. The plate was incubated at room temperature for 3 hours on a horizontal orbital plate shaker before being washed four times with wash buffer. 200 μl of APMA was added to each well and the plate incubated at 37° C. for 2 hours in a humidified environment and protected from the light. The plate was washed as before. Each well received 200 μl of substrate solution and the plate incubated at 37° C. for 17-20 hours in a humidified environment and protected from the light. The relative fluorescence unit (RFU) of each well was determined using a fluorescence plate set with 1×20 mS integration time, plate speed ˜6; excitation wavelength set to 320 nm and emission wavelength set to 405 nm.\nA standard curve was plotted of mean RFU versus MMP-1 and MMP-9 concentration (respectively), and the line of best fit calculated by regression analysis. The unknown concentration of either active MMP-1 or MMP-9 protein in all of the samples was estimated from this.\n(§4) The same methods were used as described in Example 2, except that various test agents were added to the cells during the pre-treatment period."}, "[3]": {"system": "procollagen-1 expression in human neonatal dermal fibroblast cells", "assay": "Procollagen I C-peptide EIA in neonatal-derived human dermal fibroblasts after chronic dexamethasone and PMA", "type": "cell-based", "details": "agent added during dexamethasone pre-treatment; dermal fibroblasts", "method": "as §1, §2, §3\nCollagen I is synthesised as a precursor molecule, Procollagen I. The amount of free propeptide therefore, reflects stoichiometrically, the amount of collagen I synthesised. The Procollagen Type I C-peptide Enzyme Immunoassay (EIA) kit allows for the quantitative determination of Procollagen Type I C-peptide (PIP).\nEight PIP standards were prepared in sample diluent at concentrations ranging from 0 to 640 ng/ml. 100 μl of antibody-Peroxidase conjugate solution and 20 μl of cell lysate (1 μg protein) or standard was added to duplicate wells. The plate was sealed and incubated at 37° C. for 3 hours before being washed four times with 400 μl of PBS. Each well then received 100 μl of substrate solution and the plate incubated at room temperature, on the benchtop, for 15 minutes. After this period, 100 μl stop solution was added to each well and absorbance measured at 450 nm with a plate reader.\nA standard curve was plotted of mean absorbance versus PIP concentration and the line of best fit calculated by regression analysis. The unknown concentration of PIP in all the samples was estimated from this.\nas §4"}, "[4]": {"details": "agent 1 μM during 5-day 1 μM dexamethasone pre-treatment"}, "[5]": {"details": "agent 10 μM during 5-day 1 μM dexamethasone pre-treatment"}}, "note": "Entries after “also recorded” stand apart in the source; their conditions may differ.", "data": [{"compound": "CC(C)CC[C@@H](O)[C@@H](C)[C@H]1CC[C@H]2[C@@H]3CC=C4C[C@@H](O)CC[C@]4(C)[C@H]3CC[C@]12C", "note": "[22-OH-cholesterol, 22-(R)-Hydroxycholesterol]", "values": [{"measurement": "Effective? (suppression of ICAM-1 synthesis in chronically stressed endothelial cells)", "setting": "[1]; [4]", "value": "Yes"}]}, {"compound": "O=C(O)/C=C/c1ccc(O)c(O)c1", "note": "[Caffeic acid]", "values": [{"measurement": "Effective? (suppression of ICAM-1 synthesis in chronically stressed endothelial cells)", "setting": "[1]; agent 150 μM during 5-day 1 μM dexamethasone pre-treatment", "value": "No"}]}, {"compound": "C/C(=C\\CC/C(C)=C/CCC1[C@](C)(O)CC[C@H]2C(C)(C)C(=O)CC[C@]12C)CC/C=C(\\C)C(=O)O", "note": "(stereo partly shown) [Commipheric acid]", "values": [{"measurement": "Effective? (suppression of ICAM-1 synthesis in chronically stressed endothelial cells)", "setting": "[1]; agent 10 μg/ml during 5-day 1 μM dexamethasone pre-treatment", "value": "Yes"}, {"measurement": "Effect on glucocorticoid effects on levels of MMP-1 expression following PMA-induced acute stress", "setting": "[2]", "value": "inhibited the effects of glucocorticoid"}, {"measurement": "Effect on glucocorticoid effects on levels of procollagen expression following PMA-induced acute stress", "setting": "[3]", "value": "inhibited the effects of glucocorticoid"}]}, {"compound": "COc1cc(/C=C/C(=O)CC(=O)/C=C/c2ccc(O)c(OC)c2)ccc1O", "note": "[Curcumin]", "values": [{"measurement": "Effective? (suppression of ICAM-1 synthesis in chronically stressed endothelial cells)", "setting": "[1]; [4]", "value": "Yes"}, {"measurement": "Effect on glucocorticoid effects on levels of MMP-1 expression following PMA-induced acute stress", "setting": "[2]", "value": "inhibited the effects of glucocorticoid"}, {"measurement": "Effect on glucocorticoid effects on levels of procollagen expression following PMA-induced acute stress", "setting": "[3]", "value": "inhibited the effects of glucocorticoid"}]}, {"compound": "CC(C)=CCC[C@](C)(O[C@@H]1O[C@H](CO[C@@H]2O[C@H](CO)[C@@H](O)[C@H](O)[C@H]2O)[C@@H](O)[C@H](O)[C@H]1O)[C@H]1CC[C@]2(C)[C@@H]1[C@H](O)C[C@@H]1[C@@]3(C)CC[C@H](O[C@@H]4O[C@H](CO)[C@@H](O)[C@H](O)[C@H]4O[C@@H]4O[C@H](CO)[C@@H](O)[C@H](O)[C@H]4O)C(C)(C)[C@@H]3CC[C@]12C", "note": "[Ginsenoside Rb1]", "values": [{"measurement": "Effective? (suppression of ICAM-1 synthesis in chronically stressed endothelial cells)", "setting": "[1]; [4]", "value": "Yes"}, {"measurement": "Effect on glucocorticoid effects on levels of MMP-1 expression following PMA-induced acute stress", "setting": "[2]", "value": "inhibited the effects of glucocorticoid"}, {"measurement": "Effect on glucocorticoid effects on levels of procollagen expression following PMA-induced acute stress", "setting": "[3]", "value": "inhibited the effects of glucocorticoid"}]}, {"compound": "CC(C)=CCC[C@](C)(O[C@@H]1O[C@H](CO[C@@H]2O[C@@H](CO)[C@H](O)[C@H]2O)[C@@H](O)[C@H](O)[C@H]1O)[C@H]1CC[C@]2(C)[C@@H]1[C@H](O)C[C@@H]1[C@@]3(C)CC[C@H](O[C@@H]4O[C@H](CO)[C@@H](O)[C@H](O)[C@H]4O[C@@H]4O[C@H](CO)[C@@H](O)[C@H](O)[C@H]4O)C(C)(C)[C@@H]3CC[C@]12C", "note": "[Ginsenoside Rc]", "values": [{"measurement": "Effective? (suppression of ICAM-1 synthesis in chronically stressed endothelial cells)", "setting": "[1]; [4]", "value": "Yes"}, {"measurement": "Effect on glucocorticoid effects on levels of MMP-1 expression following PMA-induced acute stress", "setting": "[2]", "value": "inhibited the effects of glucocorticoid"}, {"measurement": "Effect on glucocorticoid effects on levels of procollagen expression following PMA-induced acute stress", "setting": "[3]", "value": "inhibited the effects of glucocorticoid"}]}, {"compound": "CC#C[C@]1(O)CC[C@H]2[C@@H]3CCC4=CC(=O)CCC4=C3[C@@H](c3ccc(N(C)C)cc3)C[C@@]21C", "note": "[Mifepristone]", "values": [{"measurement": "ICAM-1 expression compared with cells without chronic GC treatment", "setting": "[1]; 2 μM mifepristone during chronic 1 μM glucocorticoid pre-treatment", "value": "below that seen in cells that had not received chronic GC treatment"}, {"measurement": "Effect on oxidative stress-induced increase in ICAM-1 expression", "setting": "[1]; 2 μM mifepristone during chronic 1 μM glucocorticoid pre-treatment, FIG. 3", "value": "significant reduction; also recorded: completely blocked"}]}, {"compound": "C=C1[C@@H](O)[C@@H]2O[C@]3(CC[C@H](/C=C/[C@@H](C)[C@@H]4CC(C)=C[C@@]5(O[C@H](C[C@@](C)(O)C(=O)O)CC[C@H]5O)O4)O3)CC[C@H]2O[C@@H]1[C@@H](O)C[C@H](C)[C@H]1O[C@@]2(CCCCO2)CC[C@H]1C", "note": "[Okadaic acid]", "values": [{"measurement": "Effective? (suppression of ICAM-1 synthesis in chronically stressed endothelial cells)", "setting": "[1]; agent 1 nM during 5-day 1 μM dexamethasone pre-treatment", "value": "Yes"}]}, {"compound": "Oc1ccc(C=Cc2cc(O)cc(O)c2)cc1", "note": "[Resveratrol]", "values": [{"measurement": "Effective? (suppression of ICAM-1 synthesis in chronically stressed endothelial cells)", "setting": "[1]; [5]", "value": "No"}]}, {"compound": "CCNC(=O)CC[C@H](N)C(=O)O", "note": "[Theanine]", "values": [{"measurement": "Effective? (suppression of ICAM-1 synthesis in chronically stressed endothelial cells)", "setting": "[1]; [5]", "value": "No"}]}, {"compound": "Cc1cccc(Nc2cc(Cl)nc(SCC(=O)O)n2)c1C", "note": "[WY14643]", "values": [{"measurement": "Effective? (suppression of ICAM-1 synthesis in chronically stressed endothelial cells)", "setting": "[1]; [5]", "value": "No"}]}, {"compound": "Alliin", "values": [{"measurement": "Effective? (suppression of ICAM-1 synthesis in chronically stressed endothelial cells)", "setting": "[1]; [5]", "value": "No"}]}, {"compound": "Mevinolin", "values": [{"measurement": "Effective? (suppression of ICAM-1 synthesis in chronically stressed endothelial cells)", "setting": "[1]; [4]", "value": "Yes"}]}]}
